Data published in patent US20230085307A1, “PYRIDAZINONE COMPOUND AND HERBICIDE” (NISSAN CHEMICAL CORPORATION, priority 2019, published 2023).

What was measured:
[1] = system: barnyard grass; assay: Test Example 3: herbicidal effect by foliage application, Wagner pot (Table 18, symbol H); type: in vivo, barnyard grass (Echinochloa crus-galli); conditions: 320 g/ha
How it was run: (§1)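 Plants were sown in alluvial soil held under 0.1–0.5 cm standing water and grown 14 days in a greenhouse at 25–30 °C. An emulsifiable formulation, water-diluted to the set dose, was then sprayed onto the foliage, and effects were scored three weeks later using previously defined criteria.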

[2] = system: Chinese sprangletop; assay: Test Example 3: herbicidal effect by foliage application, Wagner pot (Table 18, symbol D); type: in vivo, chinese sprangletop (Leptochloa chinensis); conditions: 320 g/ha
How it was run: as §1

[3] = system: rice flat sedge; assay: Test Example 3: herbicidal effect by foliage application, Wagner pot (Table 18, symbol E); type: in vivo, rice flat sedge (Cyperus iria); conditions: 320 g/ha
How it was run: as §1

[4] = system: southern crabgrass; assay: Test Example 4: herbicidal effect by soil treatment (Table 19, symbol F); type: in vivo, southern crabgrass (Digitaria ciliaris); conditions: amount of applied herbicide 320 g/ha
How it was run: (§2)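 Herbicidal effect was rated 3 weeks after treatment, using the scoring criteria of an earlier test. The compound, formulated as an emulsion and diluted in water to a set herbicide amount, had been sprayed uniformly on soil over freshly sown seeds. Growth took place in a greenhouse at 25° C. to 30° C.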

[5] = system: green foxtail; assay: Test Example 4: herbicidal effect by soil treatment (Table 19, symbol G); type: in vivo, green foxtail (Setaria viridis); conditions: amount of applied herbicide 320 g/ha
How it was run: as §2

[6] = system: barnyard grass; assay: Test Example 4: herbicidal effect by soil treatment (Table 19, symbol H); type: in vivo, barnyard grass (Echinochloa crus-galli); conditions: amount of applied herbicide 320 g/ha
How it was run: as §2

[7] = system: wild oat; assay: Test Example 4: herbicidal effect by soil treatment (Table 19, symbol I); type: in vivo, wild oat (Avena fatua); conditions: amount of applied herbicide 320 g/ha
How it was run: as §2

[8] = system: blackgrass; assay: Test Example 4: herbicidal effect by soil treatment (Table 19, symbol J); type: in vivo, blackgrass (Alopecurus myosuroides); conditions: amount of applied herbicide 320 g/ha
How it was run: as §2

[9] = system: Italian ryegrass; assay: Test Example 4: herbicidal effect by soil treatment (Table 19, symbol K); type: in vivo, Italian ryegrass (Lolium multiflorum); conditions: amount of applied herbicide 320 g/ha
How it was run: as §2

[10] = system: windgrass; assay: Test Example 4: herbicidal effect by soil treatment (Table 19, symbol L); type: in vivo, windgrass (Apera spica-venti); conditions: amount of applied herbicide 320 g/ha
How it was run: as §2

[11] = system: velvetleaf; assay: Test Example 4: herbicidal effect by soil treatment (Table 19, symbol M); type: in vivo, velvetleaf (Abutilon theophrasti); conditions: amount of applied herbicide 320 g/ha
How it was run: as §2

[12] = system: redroot pigweed; assay: Test Example 4: herbicidal effect by soil treatment (Table 19, symbol N); type: in vivo, redroot pigweed (Amaranthus retroflexus); conditions: amount of applied herbicide 320 g/ha
How it was run: as §2

[13] = system: lambsquarters; assay: Test Example 4: herbicidal effect by soil treatment (Table 19, symbol O); type: in vivo, lambsquarters (Chenopodium album); conditions: amount of applied herbicide 320 g/ha
How it was run: as §2

[14] = system: chickweed; assay: Test Example 4: herbicidal effect by soil treatment (Table 19, symbol P); type: in vivo, common chickweed (Stellaria media); conditions: amount of applied herbicide 320 g/ha
How it was run: as §2

[15] = system: false cleavers; assay: Test Example 4: herbicidal effect by soil treatment (Table 19, symbol Q); type: in vivo, false cleavers (Galium spurium); conditions: amount of applied herbicide 320 g/ha
How it was run: as §2

[16] = system: persian speedwell; assay: Test Example 4: herbicidal effect by soil treatment (Table 19, symbol R); type: in vivo, Persian speedwell (Veronica persica); conditions: amount of applied herbicide 320 g/ha
How it was run: as §2

[17] = system: southern crabgrass; assay: Test Example 5: herbicidal effect by foliage application, plastic box (Table 20, symbol F); type: in vivo, southern crabgrass (Digitaria ciliaris); conditions: foliage application, 320 g/ha, three weeks after application
How it was run: (§3)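 Foliar spray test: emulsion formulation diluted in water to a set application rate, sprayed onto 14-day-old plants raised in diluvial soil at 25° C to 30° C under glass. Both herbicidal effect and crop effect rated visually three weeks later.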

[18] = system: green foxtail; assay: Test Example 5: herbicidal effect by foliage application, plastic box (Table 20, symbol G); type: in vivo, green foxtail (Setaria viridis); conditions: foliage application, 320 g/ha, three weeks after application
How it was run: as §3

[19] = system: barnyard grass; assay: Test Example 5: herbicidal effect by foliage application, plastic box (Table 20, symbol H); type: in vivo, barnyard grass (Echinochloa crus-galli); conditions: foliage application, 320 g/ha, three weeks after application
How it was run: as §3

[20] = system: wild oat; assay: Test Example 5: herbicidal effect by foliage application, plastic box (Table 20, symbol I); type: in vivo, wild oat (Avena fatua); conditions: foliage application, 320 g/ha, three weeks after application
How it was run: as §3

[21] = system: blackgrass; assay: Test Example 5: herbicidal effect by foliage application, plastic box (Table 20, symbol J); type: in vivo, blackgrass (Alopecurus myosuroides); conditions: foliage application, 320 g/ha, three weeks after application
How it was run: as §3

[22] = system: Italian ryegrass; assay: Test Example 5: herbicidal effect by foliage application, plastic box (Table 20, symbol K); type: in vivo, Italian ryegrass (Lolium multiflorum); conditions: foliage application, 320 g/ha, three weeks after application
How it was run: as §3

[23] = system: windgrass; assay: Test Example 5: herbicidal effect by foliage application, plastic box (Table 20, symbol L); type: in vivo, windgrass (Apera spica-venti); conditions: foliage application, 320 g/ha, three weeks after application
How it was run: as §3

[24] = system: velvetleaf; assay: Test Example 5: herbicidal effect by foliage application, plastic box (Table 20, symbol M); type: in vivo, velvetleaf (Abutilon theophrasti); conditions: foliage application, 320 g/ha, three weeks after application
How it was run: as §3

[25] = system: redroot pigweed; assay: Test Example 5: herbicidal effect by foliage application, plastic box (Table 20, symbol N); type: in vivo, redroot pigweed (Amaranthus retroflexus); conditions: foliage application, 320 g/ha, three weeks after application
How it was run: as §3

[26] = system: lambsquarters; assay: Test Example 5: herbicidal effect by foliage application, plastic box (Table 20, symbol O); type: in vivo, lambsquarters (Chenopodium album); conditions: foliage application, 320 g/ha, three weeks after application
How it was run: as §3

[27] = system: chickweed; assay: Test Example 5: herbicidal effect by foliage application, plastic box (Table 20, symbol P); type: in vivo, common chickweed (Stellaria media); conditions: foliage application, 320 g/ha, three weeks after application
How it was run: as §3

[28] = system: false cleavers; assay: Test Example 5: herbicidal effect by foliage application, plastic box (Table 20, symbol Q); type: in vivo, false cleavers (Galium spurium); conditions: foliage application, 320 g/ha, three weeks after application
How it was run: as §3

[29] = system: persian speedwell; assay: Test Example 5: herbicidal effect by foliage application, plastic box (Table 20, symbol R); type: in vivo, Persian speedwell (Veronica persica); conditions: foliage application, 320 g/ha, three weeks after application
How it was run: as §3

## Cc1nn(C)c(=O)c(-c2c(-c3ccc(F)c(F)c3)sc3ccccc23)c1O [1-046]
[1]
  herbicidal effect on H (barnyard grass), rating 0-5: 3 (Herbicidal rate of 40% or more and less than 70%)
[2]
  herbicidal effect on D (Chinese sprangletop), rating 0-5: 0 (Herbicidal rate of 5% or less (almost no effect))
[3]
  herbicidal effect on E (rice flat sedge), rating 0-5: 5 (Herbicidal rate of 90% or more (almost completely withered))
[4]
  herbicidal effect rating, F: southern crabgrass: 0 (Herbicidal rate of 5% or less (almost no effect))
[5]
  herbicidal effect rating, G: green foxtail: 0 (Herbicidal rate of 5% or less (almost no effect))
[6]
  herbicidal effect rating, H: barnyard grass: 0 (Herbicidal rate of 5% or less (almost no effect))
[7]
  herbicidal effect rating, I: wild oat: 0 (Herbicidal rate of 5% or less (almost no effect))
[8]
  herbicidal effect rating, J: blackgrass: 0 (Herbicidal rate of 5% or less (almost no effect))
[9]
  herbicidal effect rating, K: Italian ryegrass: 0 (Herbicidal rate of 5% or less (almost no effect))
[10]
  herbicidal effect rating, L: windgrass: 0 (Herbicidal rate of 5% or less (almost no effect))
[11]
  herbicidal effect rating, M: velvetleaf: 0 (Herbicidal rate of 5% or less (almost no effect))
[12]
  herbicidal effect rating, N: redroot pigweed: 0 (Herbicidal rate of 5% or less (almost no effect))
[13]
  herbicidal effect rating, O: lambsquarters: 0 (Herbicidal rate of 5% or less (almost no effect))
[14]
  herbicidal effect rating, P: chickweed: 5 (Herbicidal rate of 90% or more (almost completely withered))
[15]
  herbicidal effect rating, Q: false cleavers: 5 (Herbicidal rate of 90% or more (almost completely withered))
[16]
  herbicidal effect rating, R: persian speedwell: 5 (Herbicidal rate of 90% or more (almost completely withered))
[17]
  herbicidal effect grade, F: southern crabgrass: 4 (Herbicidal rate of 70% or more and less than 90%)
[18]
  herbicidal effect grade, G: green foxtail: 4 (Herbicidal rate of 70% or more and less than 90%)
[19]
  herbicidal effect grade, H: barnyard grass: 4 (Herbicidal rate of 70% or more and less than 90%)
[20]
  herbicidal effect grade, I: wild oat: 3 (Herbicidal rate of 40% or more and less than 70%)
[21]
  herbicidal effect grade, J: blackgrass: 0 (Herbicidal rate of 5% or less (almost no effect))
[22]
  herbicidal effect grade, K: Italian ryegrass: 3 (Herbicidal rate of 40% or more and less than 70%)
[23]
  herbicidal effect grade, L: windgrass: 0 (Herbicidal rate of 5% or less (almost no effect))
[24]
  herbicidal effect grade, M: velvetleaf: 5 (Herbicidal rate of 90% or more (almost completely withered))
[25]
  herbicidal effect grade, N: redroot pigweed: 5 (Herbicidal rate of 90% or more (almost completely withered))
[26]
  herbicidal effect grade, O: lambsquarters: 4 (Herbicidal rate of 70% or more and less than 90%)
[27]
  herbicidal effect grade, P: chickweed: 5 (Herbicidal rate of 90% or more (almost completely withered))
[28]
  herbicidal effect grade, Q: false cleavers: 5 (Herbicidal rate of 90% or more (almost completely withered))
[29]
  herbicidal effect grade, R: persian speedwell: 5 (Herbicidal rate of 90% or more (almost completely withered))

## CCCC(=O)Oc1c(C)nn(C)c(=O)c1-c1c(-c2ccc(OCC)cc2)sc2cc(OC)ccc12 [3-073]
[4]
  F: southern crabgrass, herbicidal effect grade: 3 (Herbicidal rate of 40% or more and less than 70%)
[5]
  G: green foxtail, herbicidal effect grade: 3 (Herbicidal rate of 40% or more and less than 70%)
[6]
  H: barnyard grass, herbicidal effect grade: 3 (Herbicidal rate of 40% or more and less than 70%)
[7]
  I: wild oat, herbicidal effect grade: 0 (Herbicidal rate of 5% or less (almost no effect))
[8]
  J: blackgrass, herbicidal effect grade: 0 (Herbicidal rate of 5% or less (almost no effect))
[9]
  K: Italian ryegrass, herbicidal effect grade: 0 (Herbicidal rate of 5% or less (almost no effect))
[10]
  L: windgrass, herbicidal effect grade: 0 (Herbicidal rate of 5% or less (almost no effect))
[11]
  M: velvetleaf, herbicidal effect grade: 0 (Herbicidal rate of 5% or less (almost no effect))
[12]
  N: redroot pigweed, herbicidal effect grade: 4 (Herbicidal rate of 70% or more and less than 90%)
[13]
  O: lambsquarters, herbicidal effect grade: 3 (Herbicidal rate of 40% or more and less than 70%)
[14]
  P: chickweed, herbicidal effect grade: 4 (Herbicidal rate of 70% or more and less than 90%)
[15]
  Q: false cleavers, herbicidal effect grade: 2 (Herbicidal rate of 20% or more and less than 40%)
[16]
  R: persian speedwell, herbicidal effect grade: 4 (Herbicidal rate of 70% or more and less than 90%)
[17]
  F: southern crabgrass, herbicidal effect grade: 2 (Herbicidal rate of 20% or more and less than 40%)
[18]
  G: green foxtail, herbicidal effect grade: 0 (Herbicidal rate of 5% or less (almost no effect))
[19]
  H: barnyard grass, herbicidal effect grade: 0 (Herbicidal rate of 5% or less (almost no effect))
[20]
  I: wild oat, herbicidal effect grade: 0 (Herbicidal rate of 5% or less (almost no effect))
[21]
  J: blackgrass, herbicidal effect grade: 0 (Herbicidal rate of 5% or less (almost no effect))
[22]
  K: Italian ryegrass, herbicidal effect grade: 0 (Herbicidal rate of 5% or less (almost no effect))
[23]
  L: windgrass, herbicidal effect grade: 0 (Herbicidal rate of 5% or less (almost no effect))
[24]
  M: velvetleaf, herbicidal effect grade: 3 (Herbicidal rate of 40% or more and less than 70%)
[25]
  N: redroot pigweed, herbicidal effect grade: 3 (Herbicidal rate of 40% or more and less than 70%)
[26]
  O: lambsquarters, herbicidal effect grade: 2 (Herbicidal rate of 20% or more and less than 40%)
[27]
  P: chickweed, herbicidal effect grade: 5 (Herbicidal rate of 90% or more (almost completely withered))
[28]
  Q: false cleavers, herbicidal effect grade: 4 (Herbicidal rate of 70% or more and less than 90%)
[29]
  R: persian speedwell, herbicidal effect grade: 5 (Herbicidal rate of 90% or more (almost completely withered))
